Common to all, as to experiment: TR-FRET enzymatic activity assay against PI3K isoforms
Common to all, as to assay type: biochemical
Background: TR-FRET usually uses a lanthanide donor and a delayed reading to cut background.

One experiment deals with PI3Kβ (Homo sapiens (Human), UniProt P42338). To be noted: PI3Kβ, TR-FRET, 2×Km ATP, 30 minutes at 25° C. An excerpt:
(§1) The compounds of formula (I) were characterized for their enzymatic activity against the PI3K isoforms. […] TR-FRET monitored the formation of 3,4,5-inositol triphosphate molecule that competed with fluorescently labeled PIP3 for binding to the GRP-1 pleckstrin homology domain protein.

The target in another experiment is PI3Kδ (Homo sapiens (Human), UniProt O00329). The note with it: 2×Km ATP, 30 minutes at 25° C.
Sequence of PI3Kδ (O00329 whole entry): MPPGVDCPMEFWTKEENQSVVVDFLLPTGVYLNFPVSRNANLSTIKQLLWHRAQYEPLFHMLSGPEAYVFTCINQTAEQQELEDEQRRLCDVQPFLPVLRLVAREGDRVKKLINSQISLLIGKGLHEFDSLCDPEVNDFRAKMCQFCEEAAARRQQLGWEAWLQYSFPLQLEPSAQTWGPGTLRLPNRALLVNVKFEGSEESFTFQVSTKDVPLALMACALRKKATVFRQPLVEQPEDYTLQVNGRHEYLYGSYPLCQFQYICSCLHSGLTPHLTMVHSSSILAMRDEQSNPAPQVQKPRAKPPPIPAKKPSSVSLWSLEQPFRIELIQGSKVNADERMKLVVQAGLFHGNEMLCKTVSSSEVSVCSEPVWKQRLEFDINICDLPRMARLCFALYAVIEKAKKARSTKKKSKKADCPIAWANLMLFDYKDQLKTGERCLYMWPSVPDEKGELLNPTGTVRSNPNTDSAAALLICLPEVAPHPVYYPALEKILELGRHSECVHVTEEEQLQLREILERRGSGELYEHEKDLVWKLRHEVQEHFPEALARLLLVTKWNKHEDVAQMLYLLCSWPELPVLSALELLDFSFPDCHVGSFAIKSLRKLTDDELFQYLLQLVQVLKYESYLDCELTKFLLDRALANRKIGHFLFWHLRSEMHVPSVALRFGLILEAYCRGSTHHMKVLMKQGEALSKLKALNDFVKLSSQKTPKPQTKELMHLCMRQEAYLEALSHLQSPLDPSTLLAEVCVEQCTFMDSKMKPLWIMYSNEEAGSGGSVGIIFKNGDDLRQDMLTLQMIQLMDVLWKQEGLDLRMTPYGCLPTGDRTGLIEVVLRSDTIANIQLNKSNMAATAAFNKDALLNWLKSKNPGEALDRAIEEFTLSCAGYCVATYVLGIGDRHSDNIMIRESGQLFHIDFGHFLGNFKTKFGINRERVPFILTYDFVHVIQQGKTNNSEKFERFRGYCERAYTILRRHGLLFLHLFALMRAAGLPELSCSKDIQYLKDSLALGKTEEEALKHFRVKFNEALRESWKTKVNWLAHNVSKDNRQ
Sequence of PI3Kδ (P27986 whole entry partner): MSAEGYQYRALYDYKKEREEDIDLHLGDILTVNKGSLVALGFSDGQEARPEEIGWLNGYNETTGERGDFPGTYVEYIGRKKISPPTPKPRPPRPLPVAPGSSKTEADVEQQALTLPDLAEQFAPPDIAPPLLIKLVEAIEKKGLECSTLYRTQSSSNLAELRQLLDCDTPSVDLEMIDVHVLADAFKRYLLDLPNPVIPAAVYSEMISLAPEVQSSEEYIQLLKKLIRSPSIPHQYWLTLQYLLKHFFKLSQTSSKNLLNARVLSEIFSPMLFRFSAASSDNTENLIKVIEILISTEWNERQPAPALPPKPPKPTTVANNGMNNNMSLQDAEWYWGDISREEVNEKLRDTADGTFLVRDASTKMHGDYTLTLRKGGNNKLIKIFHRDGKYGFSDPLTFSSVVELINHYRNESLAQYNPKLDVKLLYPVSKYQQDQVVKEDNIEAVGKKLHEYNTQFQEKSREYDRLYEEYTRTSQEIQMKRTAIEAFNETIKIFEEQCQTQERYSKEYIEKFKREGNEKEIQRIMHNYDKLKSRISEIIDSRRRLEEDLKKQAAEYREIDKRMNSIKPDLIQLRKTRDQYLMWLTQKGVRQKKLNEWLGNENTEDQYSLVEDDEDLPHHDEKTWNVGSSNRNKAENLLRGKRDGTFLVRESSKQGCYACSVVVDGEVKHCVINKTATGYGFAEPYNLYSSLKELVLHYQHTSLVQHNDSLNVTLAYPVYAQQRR
Excerpt: as §1

Another experiment has as its target PI3Kγ (Homo sapiens (Human), UniProt P48736). To be noted: 2×Km ATP, 30 minutes at 25° C.
Excerpt: as §1

Sequence of PI3Kγ (P48736 whole entry): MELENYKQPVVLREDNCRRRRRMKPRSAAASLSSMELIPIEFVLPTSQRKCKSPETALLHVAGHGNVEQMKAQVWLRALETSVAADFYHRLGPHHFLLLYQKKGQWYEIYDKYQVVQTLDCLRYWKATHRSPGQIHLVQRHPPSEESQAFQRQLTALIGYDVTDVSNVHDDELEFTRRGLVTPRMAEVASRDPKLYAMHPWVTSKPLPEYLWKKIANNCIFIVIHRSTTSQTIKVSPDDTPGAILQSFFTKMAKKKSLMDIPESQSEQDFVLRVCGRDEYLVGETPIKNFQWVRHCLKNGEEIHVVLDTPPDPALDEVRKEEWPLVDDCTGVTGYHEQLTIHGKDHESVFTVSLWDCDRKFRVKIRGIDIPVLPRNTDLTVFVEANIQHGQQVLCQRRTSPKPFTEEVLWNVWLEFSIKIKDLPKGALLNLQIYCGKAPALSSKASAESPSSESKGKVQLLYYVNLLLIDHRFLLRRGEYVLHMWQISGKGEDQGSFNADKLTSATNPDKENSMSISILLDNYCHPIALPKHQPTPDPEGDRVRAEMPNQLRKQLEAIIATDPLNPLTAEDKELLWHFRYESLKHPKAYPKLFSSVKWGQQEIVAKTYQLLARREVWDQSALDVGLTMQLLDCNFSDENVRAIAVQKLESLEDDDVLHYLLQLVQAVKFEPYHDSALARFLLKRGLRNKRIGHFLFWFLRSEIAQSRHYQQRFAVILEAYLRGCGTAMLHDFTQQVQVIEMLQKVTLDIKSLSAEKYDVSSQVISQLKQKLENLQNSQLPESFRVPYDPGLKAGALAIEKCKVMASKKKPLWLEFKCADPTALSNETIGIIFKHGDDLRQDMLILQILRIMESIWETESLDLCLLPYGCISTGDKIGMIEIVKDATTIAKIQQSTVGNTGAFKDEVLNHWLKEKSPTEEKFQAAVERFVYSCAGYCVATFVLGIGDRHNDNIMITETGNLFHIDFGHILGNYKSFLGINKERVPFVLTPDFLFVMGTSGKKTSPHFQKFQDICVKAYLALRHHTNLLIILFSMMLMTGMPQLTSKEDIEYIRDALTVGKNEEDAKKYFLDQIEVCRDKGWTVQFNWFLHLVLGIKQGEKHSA
Sequence of PI3Kβ (P42338 whole entry, the tested form may be a part, canonical isoform): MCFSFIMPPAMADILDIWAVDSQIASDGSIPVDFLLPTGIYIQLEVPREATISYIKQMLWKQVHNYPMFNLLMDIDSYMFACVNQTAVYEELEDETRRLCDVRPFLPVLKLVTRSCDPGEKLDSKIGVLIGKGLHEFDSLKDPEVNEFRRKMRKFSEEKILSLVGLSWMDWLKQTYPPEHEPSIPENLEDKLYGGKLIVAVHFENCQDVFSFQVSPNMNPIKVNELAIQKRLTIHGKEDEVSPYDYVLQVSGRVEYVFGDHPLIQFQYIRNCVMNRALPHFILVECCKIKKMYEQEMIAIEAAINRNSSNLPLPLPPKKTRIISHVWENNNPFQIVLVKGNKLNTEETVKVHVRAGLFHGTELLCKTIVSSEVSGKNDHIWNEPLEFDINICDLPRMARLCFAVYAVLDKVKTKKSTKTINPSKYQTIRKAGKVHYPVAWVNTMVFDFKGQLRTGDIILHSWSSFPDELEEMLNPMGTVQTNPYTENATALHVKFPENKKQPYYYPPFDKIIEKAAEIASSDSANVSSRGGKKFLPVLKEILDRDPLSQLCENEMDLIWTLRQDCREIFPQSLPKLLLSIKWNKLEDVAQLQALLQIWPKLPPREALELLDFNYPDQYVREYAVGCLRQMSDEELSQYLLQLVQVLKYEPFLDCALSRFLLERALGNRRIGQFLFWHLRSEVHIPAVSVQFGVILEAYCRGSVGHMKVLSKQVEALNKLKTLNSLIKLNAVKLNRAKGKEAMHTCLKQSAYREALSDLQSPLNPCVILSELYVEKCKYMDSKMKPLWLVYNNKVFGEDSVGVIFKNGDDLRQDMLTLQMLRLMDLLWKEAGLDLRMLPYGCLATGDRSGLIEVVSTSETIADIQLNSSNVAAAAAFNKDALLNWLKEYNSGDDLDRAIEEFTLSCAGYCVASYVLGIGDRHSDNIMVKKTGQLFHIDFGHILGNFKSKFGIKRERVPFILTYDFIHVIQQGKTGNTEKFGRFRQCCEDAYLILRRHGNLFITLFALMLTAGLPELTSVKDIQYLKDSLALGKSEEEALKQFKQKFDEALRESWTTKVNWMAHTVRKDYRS
Sequence of PI3Kβ (P27986 whole entry partner, the tested form may be a part, canonical isoform): as the sequence (P27986 whole entry partner) above

For `C[C@H](Nc1ncnc(N)c1C#N)c1nc2cccc(Cl)c2c(=O)n1C[C@@H](O)CO` [Compound 142], the IC50 at PI3Kβ was 527 nM; at PI3Kδ, 87 nM; against PI3Kγ, at least 10000 nM.

As for `C[C@H](Nc1ncnc(N)c1C#N)c1nc2cccc(Cl)c2c(=O)n1C[C@H](O)CO` [Compound 143], the IC50 came to 374 nM against PI3Kβ, 34 nM at PI3Kδ and 4240 nM against PI3Kγ.

One may read the IC50 as the concentration at which inhibition is half-maximal.

The values above are taken from patent US11021467B2, “Phosphatidylinositol 3-kinase inhibitors” (Gilead Sciences, Inc., priority 2014, dated 2021).
